Experimental data from ChEMBL document CHEMBL1201862, “PubChem BioAssay data set” (2004).
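Cultured in 96-well plates, cells were exposed to test compound for 48 hours across five concentrations. GI50 is the concentration that inhibits growth by half.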 Active and inactive are the calls of the source. No stated cut-off is given here; in the data, active = GI50 up to about 1.1 µM and inactive = higher.

Assays:
Assay in all cases: NCI-60 cell line screen, 48 h
DU-145 = tested on: DU-145
EKVX = tested on: EKVX
HCT-15 = tested on: HCT-15
KM12 = tested on: KM12
LOX IMVI = tested on: LOX IMVI
MCF7 = tested on: MCF7
MDA-MB-435 = tested on: MDA-MB-435
MDA-N = tested on: MDA-N
Malme-3M = tested on: Malme-3M
OVCAR-3 = tested on: OVCAR-3
OVCAR-4 = tested on: OVCAR-4
OVCAR-8 = tested on: OVCAR-8
PC-3 = tested on: PC-3
RXF 393 = tested on: RXF 393
SF-268 = tested on: SF-268
SK-MEL-2 = tested on: SK-MEL-2
SK-MEL-5 = tested on: SK-MEL-5
SNB-19 = tested on: SNB-19
UACC-62 = tested on: UACC-62

Nc1nc(N)c(-c2cccc(C(F)(F)F)c2)c(Cc2cccc(C(F)(F)F)c2)n1
GI50 (DU-145): 7.71 µM (inactive)
GI50 (EKVX): 5.92 µM (inactive)
GI50 (HCT-15): 1.44 µM
GI50 (KM12): 5.15 µM (inactive)
GI50 (LOX IMVI): 1.35 µM (inactive)
GI50 (MCF7): 3.84 µM (inactive)
GI50 (MDA-MB-435): 2.96 µM (inactive)
GI50 (MDA-N): 0.689 µM (active)
GI50 (Malme-3M): 12.4 µM (inactive)
GI50 (OVCAR-3): 6.03 µM (inactive)
GI50 (OVCAR-4): 12.2 µM (inactive)
GI50 (OVCAR-8): 8.49 µM (inactive)
GI50 (PC-3): 11.7 µM (inactive)
GI50 (RXF 393): 3.34 µM (inactive)
GI50 (SF-268): 5.55 µM (inactive)
GI50 (SK-MEL-2): 7.71 µM (inactive)
GI50 (SK-MEL-5): 2.98 µM (inactive)
GI50 (SNB-19): 5.7 µM (inactive)
GI50 (UACC-62): 0.693 µM (active)

CN(C)CCCNc1ncnc2c1ncn2C1OC(CO)C(O)C1O (stereo unspecified)
GI50 (DU-145): > 100 µM (inactive)
GI50 (EKVX): > 100 µM (inactive)
GI50 (HCT-15): > 100 µM
GI50 (KM12): > 100 µM (inactive)
GI50 (LOX IMVI): > 100 µM (inactive)
GI50 (MCF7): > 100 µM (inactive)
GI50 (MDA-MB-435): > 100 µM (inactive)
GI50 (MDA-N): > 100 µM (inactive)
GI50 (Malme-3M): > 100 µM (inactive)
GI50 (OVCAR-3): > 100 µM (inactive)
GI50 (OVCAR-4): > 100 µM (inactive)
GI50 (OVCAR-8): > 100 µM (inactive)
GI50 (PC-3): > 100 µM (inactive)
GI50 (RXF 393): > 100 µM (inactive)
GI50 (SF-268): > 100 µM (inactive)
GI50 (SK-MEL-2): > 100 µM (inactive)
GI50 (SK-MEL-5): > 100 µM (inactive)
GI50 (SNB-19): > 100 µM (inactive)
GI50 (UACC-62): > 100 µM (inactive)

Cc1ccc(-c2c3nc(c(-c4ccc(C)cc4)c4ccc([nH]4)c(-c4ccc(OCC5COC(C)(C)O5)cc4)c4nc(c(-c5ccc(C)cc5)c5ccc2[nH]5)C=C4)C=C3)cc1 (stereo unspecified)
GI50 (DU-145): > 31.6 µM (inactive)
GI50 (EKVX): 13.5 µM (inactive)
GI50 (HCT-15): > 31.6 µM
GI50 (KM12): > 31.6 µM (inactive)
GI50 (LOX IMVI): > 31.6 µM (inactive)
GI50 (MCF7): > 31.6 µM (inactive)
GI50 (MDA-MB-435): > 31.6 µM (inactive)
GI50 (MDA-N): > 31.6 µM (inactive)
GI50 (Malme-3M): > 31.6 µM (inactive)
GI50 (OVCAR-3): > 31.6 µM (inactive)
GI50 (OVCAR-4): > 31.6 µM (inactive)
GI50 (OVCAR-8): 25.1 µM (inactive)
GI50 (PC-3): > 10 µM (inactive)
GI50 (RXF 393): > 10 µM (inactive)
GI50 (SF-268): > 31.6 µM (inactive)
GI50 (SK-MEL-2): > 31.6 µM (inactive)
GI50 (SK-MEL-5): > 31.6 µM (inactive)
GI50 (SNB-19): > 31.6 µM (inactive)
GI50 (UACC-62): > 10 µM (inactive)

CC(/C=C/c1ccccc1)=N\NC(=S)N/N=C(C)/C=C/c1ccccc1
GI50 (DU-145): 31.2 µM (inactive)
GI50 (EKVX): 47.6 µM (inactive)
GI50 (HCT-15): 12.7 µM
GI50 (LOX IMVI): 11 µM (inactive)
GI50 (MCF7): 6.46 µM (inactive)
GI50 (MDA-MB-435): 15.5 µM (inactive)
GI50 (MDA-N): 25.5 µM (inactive)
GI50 (Malme-3M): 10 µM (inactive)
GI50 (OVCAR-3): 5.64 µM (inactive)
GI50 (OVCAR-4): 5.4 µM (inactive)
GI50 (OVCAR-8): 17.5 µM (inactive)
GI50 (PC-3): 23.9 µM (inactive)
GI50 (RXF 393): 13.7 µM (inactive)
GI50 (SF-268): 4.22 µM (inactive)
GI50 (SK-MEL-2): 10.9 µM (inactive)
GI50 (SK-MEL-5): 13.8 µM (inactive)
GI50 (SNB-19): 23.2 µM (inactive)
GI50 (UACC-62): 26.2 µM (inactive)

COc1cc(/C=C2\Cc3cc(OC)c(OC)cc3C2=O)cc(OC)c1
GI50 (DU-145): > 100 µM (inactive)
GI50 (EKVX): > 100 µM (inactive)
GI50 (HCT-15): 5.26 µM
GI50 (LOX IMVI): > 55.7 µM (inactive)
GI50 (MCF7): > 86.5 µM (inactive)
GI50 (MDA-MB-435): 1.04 µM (active)
GI50 (MDA-N): 0.771 µM (active)
GI50 (Malme-3M): 15.8 µM (inactive)
GI50 (OVCAR-3): > 92.3 µM (inactive)
GI50 (OVCAR-4): > 45.4 µM (inactive)
GI50 (OVCAR-8): > 26 µM (inactive)
GI50 (PC-3): > 79.1 µM (inactive)
GI50 (RXF 393): 19.8 µM (inactive)
GI50 (SF-268): 45.9 µM (inactive)
GI50 (SK-MEL-2): > 60 µM (inactive)
GI50 (SK-MEL-5): 10.8 µM (inactive)
GI50 (SNB-19): 25.8 µM (inactive)
GI50 (UACC-62): 14.2 µM (inactive)

COc1cc2c(cc1C)NC(=O)/C2=C/c1c(Cl)[nH]c2cc(C)c(OC)cc12
GI50 (DU-145): 2.36 µM (inactive)
GI50 (EKVX): 8.04 µM (inactive)
GI50 (HCT-15): 3.72 µM
GI50 (KM12): 4.22 µM (inactive)
GI50 (LOX IMVI): 2.42 µM (inactive)
GI50 (MCF7): 1.4 µM (inactive)
GI50 (MDA-MB-435): 2.69 µM (inactive)
GI50 (MDA-N): 2.84 µM (inactive)
GI50 (Malme-3M): 11.5 µM (inactive)
GI50 (OVCAR-3): 1.94 µM (inactive)
GI50 (OVCAR-4): 5.48 µM (inactive)
GI50 (OVCAR-8): 5.98 µM (inactive)
GI50 (PC-3): 4.23 µM (inactive)
GI50 (RXF 393): 6.81 µM (inactive)
GI50 (SF-268): 2.79 µM (inactive)
GI50 (SK-MEL-2): 8.38 µM (inactive)
GI50 (SK-MEL-5): 2.62 µM (inactive)
GI50 (SNB-19): 4.63 µM (inactive)
GI50 (UACC-62): 2.07 µM (inactive)

C/C(CC(O)(C(F)(F)F)C(F)(F)F)=N\O
GI50 (DU-145): > 10 µM (inactive)
GI50 (EKVX): > 10 µM (inactive)
GI50 (HCT-15): > 10 µM
GI50 (KM12): > 10 µM (inactive)
GI50 (LOX IMVI): > 10 µM (inactive)
GI50 (MCF7): > 10 µM (inactive)
GI50 (MDA-MB-435): > 10 µM (inactive)
GI50 (MDA-N): > 10 µM (inactive)
GI50 (Malme-3M): > 10 µM (inactive)
GI50 (OVCAR-3): > 10 µM (inactive)
GI50 (OVCAR-4): > 10 µM (inactive)
GI50 (OVCAR-8): > 10 µM (inactive)
GI50 (PC-3): > 10 µM (inactive)
GI50 (RXF 393): > 10 µM (inactive)
GI50 (SF-268): > 10 µM (inactive)
GI50 (SK-MEL-2): > 10 µM (inactive)
GI50 (SK-MEL-5): > 10 µM (inactive)
GI50 (SNB-19): > 10 µM (inactive)
GI50 (UACC-62): > 10 µM (inactive)
